From PubChem BioAssay (NCI)
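Protocol summary: plate cells (96-well), add compound at 5 concentrations, incubate 48 h, interpolate endpoints linearly. The concentration for full growth arrest is given as TGI.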

Columns and labels:
Experiment in all cases: growth of human tumour cells (NCI), 48 h
[1] = test system: COLO 205 colon
[2] = test system: HCT-15 colon
[3] = test system: MALME-3M melanoma
[4] = test system: KM12 colon
[5] = test system: HL-60(TB) leukemia
[6] = test system: SK-MEL-2 melanoma
[7] = test system: SK-OV-3 ovarian
[8] = test system: DU-145 prostate
[9] = test system: OVCAR-5 ovarian
[10] = test system: SNB-75 CNS
[11] = test system: RPMI-8226 leukemia
[12] = test system: CCRF-CEM leukemia
[13] = test system: NCI/ADR-RES ovarian
[14] = test system: MDA-MB-435
[15] = test system: NCI-H460 lung
[16] = test system: A498 renal
[17] = test system: MDA-MB-231 breast
[18] = test system: OVCAR-3 ovarian
[19] = test system: SW-620 colon
[20] = test system: OVCAR-8 ovarian
[21] = test system: HS 578T breast
[22] = test system: RXF 393 renal
[23] = test system: SN12C renal
[24] = test system: UACC-62 melanoma
[25] = test system: MOLT-4 leukemia
[26] = test system: A549 NSCLC
[27] = test system: MDA-N
[28] = test system: HT29 colon
[29] = test system: NCI-H23 lung
[30] = test system: UO-31 renal
[31] = test system: K-562 leukemia
[32] = test system: HOP-62 NSCLC
[33] = test system: M14 melanoma
[34] = test system: SNB-19 CNS
[35] = test system: PC-3 prostate
[36] = test system: SF-268 CNS
[37] = test system: BT-549 breast
[38] = test system: SK-MEL-5 melanoma
[39] = test system: HCT-116 colon
[40] = test system: CAKI-1 renal
[41] = test system: TK-10 renal
[42] = test system: IGROV1 ovarian
[43] = test system: ACHN renal
[44] = test system: NCI-H226 lung
[45] = test system: EKVX NSCLC
[46] = test system: SK-MEL-28 melanoma
[47] = test system: U251 CNS
[48] = test system: NCI-H522 lung
[49] = test system: 786-0 renal
[50] = test system: SF-295 CNS
[51] = test system: OVCAR-4 ovarian
[52] = test system: UACC-257 melanoma
[53] = test system: HCC-2998 colon
[54] = test system: HOP-92 NSCLC
[55] = test system: LOX IMVI melanoma
[56] = test system: SF-539 CNS
[57] = test system: MCF7 breast

Measured: TGI

c1ccc2c(c1)NCCC(=NC1CCCCC1)N2
not listed: [53] | [54] | [55] | [56] | [57]
> 100 µM: all other assays above

CC1(C)CC(=O)C(/C=N/C(N)=S)=C(O)C1
not listed: [3] | [11] | [16] | [31]
> 100 µM: all other assays above
